Results: patent US20050169994A1 (priority 2003, published 2005)
Where a name gives a salt, the structure may show the parent alone. Read-outs that look alike come from different tables or passages of the source.

Legend:
[1] = pH 7.1
[2] = cited from earlier work
[3] = R and S isomers, systemic circulation; cited from earlier work
[4] = pH-solubility profile for carvedilol; details: aqueous medium
[5] = Solubility in water at 25° C. over time, with pH of filtered solution
From the text: Aliquots were taken out at various time-point, filtered through 0.45 μm Acrodisc GHP filter.

SMILES: COc1ccccc1OCCNCC(O)COc1cccc2[nH]c3ccccc3c12 (stereo not drawn) [Carvedilol]
- solubility [1]: 20 to 30 µg/mL
- solubility ([2]; above a pH of 9.0): < 1 µg/mL
- saturation solubility ([2]; pH=5, room temperature): about 100 μg/mL
- saturation solubility ([2]; pH=7, room temperature): about 23 μg/mL
- alpha elimination phase [3]: about 1.5 hours
- solubility thermodynamic [4]: ≤ 100 µg/mL

SMILES: COc1ccccc1OCCNCC(O)COc1cccc2[nH]c3ccccc3c12 (stereo not drawn) [HBr salt, carvedilol hydrobromide]
- aqueous solubility compared with free base [5]: much better aqueous solubility than the free base

SMILES: COc1ccccc1OCCNCC(O)COc1cccc2[nH]c3ccccc3c12.O=P(O)(O)O (stereo not drawn) [Phosphate salt, Carvedilol dihydrogen phosphate]
- aqueous solubility compared with free base ([5]; in words): much better aqueous solubility than the free base

SMILES: COc1ccccc1OCCNCC(O)COc1cccc2[nH]c3ccccc3c12 (stereo not drawn) [hydrochloride salt of carvedilol, carvedilol hydrochloride]
- solubility in acidic medium ([2]; salt generated in situ in acidic medium simulating gastric fluid): less soluble
